Molecules are shown by their SMILES.

The first test deals with T1, Recombinant human calpain I (Homo sapiens, UniProt P07384).
T1 construct: made in house
T1 sequence (P07384 1-714): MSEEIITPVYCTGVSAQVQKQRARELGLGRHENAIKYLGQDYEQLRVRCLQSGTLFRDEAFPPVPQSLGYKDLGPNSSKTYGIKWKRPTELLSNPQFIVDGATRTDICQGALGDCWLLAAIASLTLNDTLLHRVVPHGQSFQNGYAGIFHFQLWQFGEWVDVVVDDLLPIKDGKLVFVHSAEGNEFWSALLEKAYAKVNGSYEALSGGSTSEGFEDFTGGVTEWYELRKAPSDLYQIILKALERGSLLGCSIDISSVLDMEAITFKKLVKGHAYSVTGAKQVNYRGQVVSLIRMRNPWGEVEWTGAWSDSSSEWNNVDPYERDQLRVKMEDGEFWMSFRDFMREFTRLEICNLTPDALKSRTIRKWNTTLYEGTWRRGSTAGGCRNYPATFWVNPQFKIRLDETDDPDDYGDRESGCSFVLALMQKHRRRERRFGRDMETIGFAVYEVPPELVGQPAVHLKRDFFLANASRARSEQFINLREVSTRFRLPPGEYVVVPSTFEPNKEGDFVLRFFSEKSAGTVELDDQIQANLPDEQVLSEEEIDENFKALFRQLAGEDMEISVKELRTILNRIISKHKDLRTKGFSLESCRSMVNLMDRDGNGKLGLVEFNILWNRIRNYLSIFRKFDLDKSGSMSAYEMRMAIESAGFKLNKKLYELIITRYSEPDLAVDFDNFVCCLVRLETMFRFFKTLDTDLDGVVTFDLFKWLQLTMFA
T1 sequence (P04632 1-268 partner): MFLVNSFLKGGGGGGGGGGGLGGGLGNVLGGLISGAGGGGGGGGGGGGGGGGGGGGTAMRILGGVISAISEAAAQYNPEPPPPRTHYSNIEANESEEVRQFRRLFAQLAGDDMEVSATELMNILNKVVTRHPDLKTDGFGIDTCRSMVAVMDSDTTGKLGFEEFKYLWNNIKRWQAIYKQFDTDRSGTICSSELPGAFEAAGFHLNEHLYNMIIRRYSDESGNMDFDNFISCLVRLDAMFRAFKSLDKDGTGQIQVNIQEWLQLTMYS
As to the kind of experiment: Inhibition of cysteine protease activity: calpain I, Succ-Leu-Tyr-MNA substrate hydrolysis. The test is classed as biochemical. Conditions: Table 2, linear α-ketoamides. On the procedure: To evaluate inhibitory activity, stock solutions (40 times concentrated) of each compound to be tested were prepared in 100% anhydrous DMSO and 5 μl of each inhibitor preparation were aliquoted into each of three wells of a 96-well plate. Recombinant human calpain I, prepared by the method of Meyer et al. (Biochem. J. 1996, 314: 511–519; incorporated herein by reference in its entirety), was diluted into assay buffer (i.e., 50 mM Tris, 50 mM NaCl, 1 mM EDTA, 1 mM EGTA, and 5 mM β-mercaptoethanol, pH 7.5, including 0.2 mM Succ-Leu-Tyr-MNA), and 175 μl was aliquoted into the same wells containing the independent inhibitor stocks as well as to positive control wells containing 5 μl DMSO, but no compound. To start the reaction, 20 μl of 50 mM CaCl2 in assay buffer was added to all wells of the plate, excepting three, which were used as background signal baseline controls. Substrate hydrolysis was monitored every 5 minutes for a total of 30 minutes. Substrate hydrolysis in the absence of inhibitor was linear for up to 15 minutes.
Inhibition of calpain I activity was calculated as the percent decrease in the rate of substrate hydrolysis in the presence of inhibitor relative to the rate in its absence. Comparison between the inhibited and control rates was made within the linear range for substrate hydrolysis. The IC50s of inhibitors (concentration yielding 50% inhibition) were determined from the percent decrease in rates of substrate hydrolysis in the presence of five to seven different concentrations of the test compound. The results were plotted as percent inhibition versus log inhibitor concentration, and the IC50 was calculated by fitting the data to the four-parameter logistic equation shown below using the program GraphPad Prism (GraphPad Software, Inc., San Diego, Calif.). y=d+[(a−d)/(1+(x/c)^b)]
The parameters a, b, c, and d are defined as follows: a is % inhibition in the absence of inhibitor, b is the slope, c is the IC50, and d is the % inhibition at an infinite concentration of inhibitor.
In the case of `Cn1nc(-c2ccc(S(=O)(=O)NCCNC(=O)C(=O)C(Cc3ccccc3)NC(=O)C(COCc3ccccc3)NS(C)(=O)=O)s2)cc1C(F)(F)F` (mixture of isomers) [Compound 34], the half-inhibitory concentration (IC50) is 25 nM.

With `CS(=O)(=O)NC(COCc1ccccc1)C(=O)NC(Cc1ccccc1)C(=O)C(=O)NCCNS(=O)(=O)c1ccc(-c2ccccc2)s1` (mixture of isomers) [Compound 42], the half-inhibitory concentration (IC50) stood at 14 nM.

With `CS(=O)(=O)NC(COCc1ccccc1)C(=O)NC(Cc1ccccc1)C(=O)C(=O)NCCNS(=O)(=O)c1ccc(-c2cccc(N)c2)s1` (mixture of isomers) [Compound 44], the IC50 was determined as 31 nM.

Regarding `CS(=O)(=O)N[C@H](COCc1ccccc1)C(=O)N[C@@H](Cc1ccccc1)C(=O)C(=O)NCCNS(=O)(=O)c1ccccc1` [Compound 9], the IC50 turned out to be 16 nM.

Take `CC(C)C[C@H](NC(=O)OCc1ccccc1)C(=O)N[C@@H](Cc1ccccc1)C(=O)C(=O)NCCNS(=O)(=O)c1ccccc1` [Compound 17]: the 50% inhibitory concentration (IC50) stood at 11 nM.

Regarding `CS(=O)(=O)N[C@H](COCc1ccccc1)C(=O)N[C@@H](Cc1ccccc1)C(=O)C(=O)NCCNS(=O)(=O)c1ccc(N)cc1` [Compound 22], the 50% inhibitory concentration (IC50) amounted to 42 nM.

On to `CS(=O)(=O)N[C@H](COCc1ccccc1)C(=O)N[C@@H](Cc1ccccc1)C(=O)C(=O)NCCNS(=O)(=O)c1ccc(-c2ccccc2)s1` [Compound 29], for which the IC50 was 14 nM.

Turning to `CS(=O)(=O)N[C@H](COCc1ccccc1)C(=O)N[C@@H](Cc1ccccc1)C(=O)C(=O)NCCNS(=O)(=O)c1cccnc1` [Compound 31], the IC50 came to 29 nM.

As for `CS(=O)(=O)N[C@H](COCc1ccccc1)C(=O)N[C@@H](Cc1ccccc1)C(=O)C(=O)NCCNS(=O)(=O)c1ccc(-c2ccon2)s1` [Compound 32], the IC50 stood at 10 nM.

Turning to `CSc1nccc(-c2ccc(S(=O)(=O)NCCNC(=O)C(=O)[C@H](Cc3ccccc3)NC(=O)[C@@H](COCc3ccccc3)NS(C)(=O)=O)s2)n1` [Compound 33], the IC50 came out at 17 nM.

Consider `CS(=O)(=O)NCCNC(=O)C(=O)[C@H](Cc1ccccc1)NC(=O)[C@@H](COCc1ccccc1)NS(C)(=O)=O` [Compound 35], for which the IC50 was 91 nM.

As to `CS(=O)(=O)N[C@H](COCc1ccccc1)C(=O)N[C@@H](Cc1ccccc1)C(=O)C(=O)NCCNS(=O)(=O)c1ccc(S(=O)(=O)c2ccccc2)s1` [Compound 37], the half-maximal inhibitory concentration (IC50) amounted to 18 nM.

On to `CS(=O)(=O)N[C@H](COCc1ccccc1)C(=O)N[C@@H](Cc1ccccc1)C(=O)C(=O)NCCNS(=O)(=O)c1ccc(Br)s1` [Compound 39], for which the IC50 was 22 nM.

On to `CS(=O)(=O)N[C@H](COCc1ccccc1)C(=O)N[C@@H](Cc1ccccc1)C(=O)C(=O)NCCNS(=O)(=O)c1ccc(-c2ccc(N)cc2)cc1` [Compound 40], for which the concentration for half-maximal inhibition (IC50) stood at 63 nM.

`CN(C)Cc1ccc(S(=O)(=O)NCCNC(=O)C(=O)[C@H](Cc2ccccc2)NC(=O)[C@@H](COCc2ccccc2)NS(C)(=O)=O)cc1` [Compound 45]: the IC50 was determined as 64 nM.

`CS(=O)(=O)N[C@H](COCc1ccccc1)C(=O)N[C@@H](Cc1ccccc1)C(=O)C(=O)NCCNS(=O)(=O)CCc1ccncc1` [Compound 46]: the half-maximal inhibitory concentration (IC50) was found to be 144 nM.

The same test, now with this note: Table 2; 10 μM compound; values in brackets marked **.
Consider `O=C(NCCNS(=O)(=O)c1ccccc1)C(=O)[C@H](Cc1ccccc1)NC(=O)[C@@H]1CCCN1S(=O)(=O)c1ccccc1` [Compound 13], for which the “Percent inhibition @ 10 μM (Calpain)” value was “(78%)”.

For the compound `O=C(NCCNS(=O)(=O)c1ccccc1)C(=O)[C@H](Cc1ccccc1)NC(=O)[C@H](Cc1ccccc1)NS(=O)(=O)c1ccccc1` [Compound 30], the “Percent inhibition @ 10 μM (Calpain)” value was “(97%)”.

The test is the same for the next values; noted with them: Table 3, branched-chain α-ketoamides.
On to `C[C@H](CNC(=O)C(=O)[C@H](Cc1ccccc1)NC(=O)[C@@H](COCc1ccccc1)NS(C)(=O)=O)NS(=O)(=O)c1ccccc1` [Compound 48], for which the IC50 stood at 43 nM.

On to `C[C@@H](CNS(=O)(=O)c1ccccc1)NC(=O)C(=O)[C@H](Cc1ccccc1)NC(=O)[C@@H](COCc1ccccc1)NS(C)(=O)=O` [Compound 49], for which the half-maximal inhibitory concentration (IC50) is 32 nM.

Staying with this test, now noted: Table 3; concentration not given.
Regarding `CN(CCNC(=O)C(=O)[C@H](Cc1ccccc1)NC(=O)[C@@H](COCc1ccccc1)NS(C)(=O)=O)S(=O)(=O)c1ccccc1` [Compound 50], the “Calpain percent inhibition, value in brackets marked **” value is “(100%)”.

The test is the same for the next values; noted with them: Table 4, α-ketoamides.
Turning to `CS(=O)(=O)NC(C(=O)NC(Cc1ccccc1)C(=O)C(=O)NCCNS(=O)(=O)c1ccc(-c2ccccn2)s1)c1ccccc1` (mixture of isomers) [Compound 68], the 50% inhibitory concentration (IC50) was found to be 21 nM.

For the compound `CS(=O)(=O)NC(C(=O)NC(Cc1ccccc1)C(=O)C(=O)NCCNS(=O)(=O)c1ccccc1)c1ccccc1` (mixture of isomers) [Compound 69], the IC50 was 80 nM.

In the case of `CS(=O)(=O)NC(COCc1ccccc1)C(=O)NC(Cc1ccccc1)C(=O)C(=O)NCCNS(=O)(=O)c1ccc(-c2cccc(F)c2)s1` (mixture of isomers) [Compound 72], the IC50 worked out at 18 nM.

On to `CS(=O)(=O)NC(COCc1ccccc1)C(=O)NC(Cc1ccccc1)C(=O)C(=O)NCCNS(=O)(=O)c1ccc(-c2cccc([N+](=O)[O-])c2)s1` (mixture of isomers) [Compound 74], for which the IC50 was determined as 15 nM.

For `Cc1cccc(-c2ccc(S(=O)(=O)NCCNC(=O)C(=O)C(Cc3ccccc3)NC(=O)C(COCc3ccccc3)NS(C)(=O)=O)s2)c1` (mixture of isomers) [Compound 75], the IC50 came to 36 nM.

For the compound `CC(=O)Nc1cccc(-c2ccc(S(=O)(=O)NCCNC(=O)C(=O)C(Cc3ccccc3)NC(=O)C(COCc3ccccc3)NS(C)(=O)=O)s2)c1` (mixture of isomers) [Compound 76], the IC50 is 11 nM.

In the case of `CC(=O)c1cccc(-c2ccc(S(=O)(=O)NCCNC(=O)C(=O)C(Cc3ccccc3)NC(=O)C(COCc3ccccc3)NS(C)(=O)=O)s2)c1` (mixture of isomers) [Compound 77], the half-inhibitory concentration (IC50) came out at 10 nM.

In the case of `CS(=O)(=O)NC(COCc1ccccc1)C(=O)NC(Cc1ccccc1)C(=O)C(=O)NC1CCN(S(=O)(=O)c2ccc(CN3CCOCC3)cc2)CC1` (mixture of isomers) [Compound 78], the 50% inhibitory concentration (IC50) came out at 48 nM.

Consider `COc1ccc(-c2ccc(S(=O)(=O)NCCNC(=O)C(=O)C(Cc3ccccc3)NC(=O)C(COCc3ccccc3)NS(C)(=O)=O)s2)cc1` (mixture of isomers) [Compound 82], for which the IC50 was found to be 13 nM.

Turning to `CS(=O)(=O)NC(COCc1ccccc1)C(=O)NC(Cc1ccccc1)C(=O)C(=O)NCCCCCNS(=O)(=O)c1ccc(-c2ccccn2)s1` (mixture of isomers) [Compound 92], the IC50 came to 12 nM.

With `CS(=O)(=O)NC(COCc1ccccc1)C(=O)NC(Cc1ccccc1)C(=O)C(=O)NC1CCN(S(=O)(=O)c2ccc(-c3ccccn3)s2)CC1` (mixture of isomers) [Compound 107], the concentration for half-maximal inhibition (IC50) came out at 23 nM.

Take `CS(=O)(=O)NC(COCc1ccccc1)C(=O)NC(Cc1ccccc1)C(=O)C(=O)NCCNS(=O)(=O)c1ccc(-c2cccc(C#N)c2)s1` (mixture of isomers) [Compound 110]: the IC50 came out at 11 nM.

Turning to `CS(=O)(=O)NC(COCc1ccccc1)C(=O)NC(Cc1ccccc1)C(=O)C(=O)NCCNS(=O)(=O)c1ccc(CN2CC=CC2)cc1` (mixture of isomers) [Compound 111], the IC50 came to 73 nM.

For the compound `CS(=O)(=O)N[C@H](COCc1ccccc1)C(=O)N[C@@H](Cc1ccccc1)C(=O)C(=O)NCCNS(=O)(=O)c1cccc(-c2csc(N)n2)c1` [Compound 51], the half-inhibitory concentration (IC50) came to 29 nM.

(Values after patent US7001907B2, “Peptide-containing α-ketoamide cysteine and serine protease inhibitors” (Cephaon, Inc., priority 1997, dated 2006).)
